From patent US20200215082A1, “Dihydrotestosterone and Dihydrotestosterone Derivatives and Promoters in the Treatment of Cancer” (Tyme, Inc., priority 2016, published 2020)

Tested on: cancerous tumor of the distal radius
Assay: Treatment of a canine with a cancerous tumor of the distal radius (X-ray)
Assay type: in vivo
Details: after stanozolol administration, FIG. 1 before, FIG. 2 after, dose and route not given
Description: FIG. 1 is an X-ray depicting a cancerous tumor on the distal radius of a canine.
FIG. 2 is an X-ray depicting calcification of the cancerous tumor shown in FIG. 1 after treatment according to a preferred aspect of the disclosure.
A canine presenting with a cancerous tumor of the distal radius (see FIG. 1) was administered stanozolol.

stanozolol was tested, and the “calcification of the cancerous tumor” value was “the cancerous tumor calcified”.
